Test results taken from patent publication US20080300231A1, “Antibacterial amide macrocycles VI” (priority 2005, published 2008).
≈ marks a conversion by molar mass, not a printed value.

Experiments:
Type in all cases: cell-based
S. aureus 133 = experiment: Minimum inhibitory concentration (MIC), S. aureus 133; conditions: S. aureus 133
Description: (§1) Determination of the Minimum Inhibitory Concentration (MIC)
(§2) The minimum inhibitory concentration (MIC) is the minimum concentration of an antibiotic with which the growth of a test microbe is inhibited over 18-24 h. The inhibitor concentration can in these cases be determined by standard microbiological methods (see, for example, The National Committee for Clinical Laboratory Standards. Methods for dilution antimicrobial susceptibility tests for bacteria that grow aerobically; approved standard-fifth edition. NCCLS document M7-A5 [ISBN 1-56238-394-9]. NCCLS, 940 West Valley Road, Suite 1400, Wayne, Pa. 19087-1898 USA, 2000). The MIC of the compounds of the invention is determined in the liquid dilution test on the 96-well microtitre plate scale. The bacterial microbes are cultivated in a minimal medium (18.5 mM Na2HPO4, 5.7 mM KH2PO4, 9.3 mM NH4Cl, 2.8 mM MgSO4, 17.1 mM NaCl, 0.033 μg/ml of thiamine hydrochloride, 1.2 μg/ml of nicotinic acid, 0.003 μg/ml of biotin, 1% glucose, 25 μg/ml of each proteinogenic amino acid with the exception of phenylalanine; [H.-P. Kroll; unpublished]) with addition of 0.4% BH broth (test medium). In the case of Enterococcus faecium L4001, heat-inactivated fetal calf serum (FCS; GibcoBRL, Germany) is added to the test medium in a final concentration of 10%. Overnight cultures of the test microbes are diluted to an OD578 of 0.001 (to 0.01 in the case of enterococci) in fresh test medium, and incubated 1:1 with dilutions of the test substances (1:2 dilution steps) in test medium (200 μl final volume). The cultures are incubated at 37° C. for 18-24 hours; enterococci in the presence of 5% CO2
(§3) The lowest substance concentration in each case at which no visible bacterial growth occurs any more is defined as the MIC.
(§4) Alternative Method for Determining the Minimum Inhibitory Concentration (MIC)
(§5) The minimum inhibitory concentration (MIC) is the minimum concentration of an antibiotic with which the growth of a test microbe is inhibited over 18-24 h. The inhibitor concentration can in these cases be determined by standard microbiological methods with modified medium in an agar dilution test (see, for example, The National Committee for Clinical Laboratory Standards. Methods for dilution antimicrobial susceptibility tests for bacteria that grow aerobically; approved standard-fifth edition. NCCLS document M7-A5 [ISBN 1-56238-394-9]. NCCLS, 940 West Valley Road, Suite 1400, Wayne, Pa. 19087-1898 USA, 2000). The bacterial microbes are cultivated on 1.5% agar plates which contain 20% defibrinated horse blood. The test microbes, which are incubated overnight on Columbia blood agar plates (Becton-Dickinson), are diluted in PBS, adjusted to a microbe count of about 5×10^5 microbes/ml and placed dropwise (1-3 μl) on test plates. The test substances comprise different dilutions of the test substances (1:2 dilution steps). The cultures are incubated at 37° C. in the presence of 5% CO2 for 18-24 hours.
(§6) The lowest substance concentration in each case at which no visible bacterial growth occurred any more is defined as the MIC and is reported in μg/ml.

S. aureus T17 = experiment: Minimum inhibitory concentration (MIC), biphenomycin-resistant S. aureus T17
Description: as §1, §2, §3, §4, §5, §6
The S. aureus strain T17 is isolated in vivo. CFW1 mice are infected intraperitoneally with 4×10^7 S. aureus 133 cells per mouse. 0.5 h after the infection, the animals are treated intravenously with 50 mg/kg biphenomycin B. The kidneys are removed from the surviving animals on day 3 after the infection. After homogenization of the organs, the homogenates are plated out as described for RN4220Bi^R on antibiotic-free and antibiotic-containing agar plates and incubated at 37° C. overnight. […] About 20 of these colonies are tested for the biphenomycin B MIC, and a colony with a MIC of >50 μM is selected for further cultivation, and the strain is referred to as T17.

S. aureus RN4220Bi^R = experiment: MIC against biphenomycin-resistant S. aureus strain RN4220Bi^R; conditions: colony selected as strain RN4220Bi^R
Description: (§7) The S. aureus strain RN4220Bi^R is isolated in vitro. […] Whereas about 1×10^7 cells grow on the antibiotic-free plate, about 100 colonies grow on the antibiotic-containing plate, corresponding to a resistance rate of 1×10^5. Some of the colonies grown on the antibiotic-containing plate are tested for the biphenomycin B MIC. One colony with a MIC of >50 μM is selected for further use, and the strain is referred to as RN4220Bi^R.

[1] = tested on: Enterococcus faecium L4001; experiment: Minimum inhibitory concentration (MIC), E. faecium L4001; conditions: E. faecium L4001; test medium with 10% FCS
Description: as §1, §2, §3, §4, §5, §6

S. aureus RN4220 = experiment: Resistance rate of S. aureus RN4220 on biphenomycin B agar plate; conditions: agar plate containing 2 μg/ml biphenomycin B (10×MIC), 37° C. overnight
Description: as §7

## NC[C@H](O)C[C@@H]1NC(=O)[C@@H](N)Cc2cc(ccc2O)-c2ccc(O)c(c2)C[C@@H](C(=O)O)NC1=O [Biphenomycin B, biphenomycin B, reference compound]
S. aureus 133
  MIC S. aureus 133: <0.03 µg/mL
S. aureus T17; biphenomycin-resistant S. aureus T17
  MIC S. aureus T17: >32 µg/mL
S. aureus T17; colony from kidney selected as strain T17
  MIC: > 50 µM
S. aureus RN4220Bi^R
  MIC: > 50 µM
[1]
  MIC E. faecium L4001: 0.5 µg/mL (≈ 1.06 µM)
S. aureus RN4220
  resistance rate: 1×10^5
